Like-named read-outs stand apart in the source and are kept apart here. Where no end group is shown, it is not given here.
Tests used:
HepG2 cells = format: cell-based, human; conditions: for Activity on HepG2 cells (in words): HepG2, discussion statement; for IC50 (cell viability): 24 h
Method: HepG2 human hepatic cancer cells (taken from laboratory stocks) were routinely grown in high glucose–DMEM medium with the addition of 10% fetal calf serum (Life Technologies, Carlsbad, CA, USA) and antibiotics (100 U/mL penicillin and 100 μg/mL streptomycin; Life Technologies), at 37 °C in a 5% CO2 atmosphere.
For IC50 determination, cells undergoing exponential growth were seeded at a concentration of 5500/well in 96-well plates, allowed to adhere overnight, and then grown in control conditions or exposed to different concentrations of natural and synthetic peptides for 24 h. The number of viable cells was determined through the trypan blue exclusion test. The cell viability ratio in each experimental condition was determined as the ratio between unstained treated cells and controls, and the half maximal inhibitory concentrations (IC50) for peptides #7, #3d, and #7d were evaluated using the CompuSyn software.

E. coli ATCC 25922 = format: cell-based, Escherichia coli
Text: (§1) Four bacterial strains and one fungal strain were employed in this study: S. aureus ATCC 25923, P. aeruginosa ATCC 15442, E. coli ATCC 25922, E. faecalis ATCC 29212, and C. albicans ATCC 10231. The media used for microbiological assays were Tryptic Soy Broth (TSB, Sigma-Aldrich, Merck-Life Sciences S.r.l., Milan, Italy), Tryptic Soy Agar (TSA), Mueller Hinton II (Sigma-Aldrich, Merck-Life Sciences S.r.l., Milan, Italy), and Sabouraud medium for the yeast strain.
(§2) Polypeptide-enriched extracts derived from green leaves and rhizomes of P. oceanica were lyophilized and resuspended in ultrapure water in order to obtain protein concentrations of 30 μg/mL and 26 μg/mL, respectively. The MIC values of the extracts were assessed through a previously described micro-method based on serial dilution (1:2) of the extracts, using Mueller Hinton II (MH II) and Sabouraud (for C. albicans) media in 96-well microplates and starting from 50% v/v to 1.5% v/v for a final volume equal to 100 μL. A microbial suspension of 10 μL (5 × 10^6 CFU/mL) derived from a bacterial culture grown at 37 °C for 24 h on Tryptic Soy Agar (TSA) in 5 mL of NaCl 0.9%, whose turbidity was similar to the 0.5 McFarland standard, was added to a 96-well plate followed by incubation at 37 °C for 24 h. […] In addition, a positive growth control (broth with bacterial inoculum to compare the growth of the cells with samples) and a sample control (extract solution without bacterial inoculum to verify the absorbance of the samples at various tested concentrations) were also included.
(§3) The same procedure and media were also used to evaluate the antimicrobial activity of synthetic peptides #2, #3, #5, and #7, as well as of their derivatives. In particular, the synthetic peptides and their derivatives were dissolved in ultrapure water with the goal of achieving a stock solution of 5 mg/mL. Work solutions of 250 μg/mL of each synthetic peptides and derivatives were prepared in MH II and Sabouraud, being tested in 96-well microplates after serial dilution (1:2). Each assay was performed in triplicate.

P. aeruginosa ATCC 15442 [1] = format: cell-based, Pseudomonas aeruginosa
Text: as §1, §2, §3

E. faecalis ATCC 29212 = format: cell-based, Enterococcus faecalis
Text: as §1, §2, §3

C. albicans ATCC 10231 = format: cell-based, Candida albicans
Text: as §1, §2, §3

S. aureus ATCC 25923 = format: cell-based, Staphylococcus aureus
Text: as §1, §2, §3

P. aeruginosa ATCC 15442 [2] = format: cell-based, Pseudomonas aeruginosa; conditions: crystal violet
Method: Sub-MIC concentrations of natural extracts and synthetic peptides were tested to evaluate their interference with the growth as a sessile community of S. aureus ATCC 25923, P. aeruginosa ATCC 15442 and C. albicans ATCC 10231, as previously reported. Bacterial strains or fungal strains were incubated in test tubes containing TSB or Sabouraud (5 mL) and 2% v/v glucose at 37 °C for 24 h. Then, a 2.5 μL microbial suspension was added to each well, containing 200 μL of TSB or Sabouraud broth with 2% w/v glucose.. Aliquots of sub-MIC concentrations of natural extracts of P. oceanica or of chemically synthesized peptides were directly added to the wells, and the plates were incubated at 37 °C for 24 h. After biofilm formation, the wells were washed twice with sterile NaCl 0.9% and stained with 200 μL of 0.1% v/v crystal violet solution for 30 min at 37 °C [70]. Excess solution was discharged, and the plates were washed twice using tap water. Lastly, each stained well was processed by adding 200 μL of ethanol to solubilize the dye. The OD was read at a wavelength of 600 nm using a microplate reader (Glomax®-Multi Detection System, Promega s.r.l., Milan, Italy). […] The percentage of biofilm inhibition formation was determined through the following formula: % Inhibition = [(OD growth − OD sample)/OD growth control] × 100. […]

[3] = chemically synthesized peptide, maximum tested concentration 250 μg/mL, Mueller Hinton II, triplicate

| Sequence | IC50 (cell viability) (HepG2 cells) [µg/mL] | MIC (E. coli ATCC 25922; ATCC 25922, 24 h) [µg/mL] | MIC (P. aeruginosa ATCC 15442 [1]; ATCC 15442, 24 h) [µg/mL] | MIC (E. faecalis ATCC 29212; ATCC 29212, 24 h) [µg/mL] | MIC (C. albicans ATCC 10231; ATCC 10231, 24 h) [µg/mL] | MIC (S. aureus ATCC 25923; ATCC 25923, 24 h) [µg/mL] | other results |
| --- | --- | --- | --- | --- | --- | --- | --- |
| EETFHGVL [Peptide #2, natural peptide EETFHGVL from green leaves extract, chemically synthesized] |  |  |  |  |  |  | Activity on HepG2 cells (in words) (HepG2 cells): lack of activity |
| GEFALCKATK [Peptide #7d] | 0.108 | > 250 | > 250 | > 250 | > 250 | > 250 |  |
| GEFALCSAKT [Peptide #7] | 0.329 |  |  |  |  |  |  |
| IVAKVGSA [5d] |  |  |  |  |  |  | MIC (E. coli ATCC 25922; [3]): > 250 µg/mL; MIC (P. aeruginosa ATCC 15442 [1]; [3]): > 250 µg/mL; Percentage of inhibition of biofilm formation (P. aeruginosa ATCC 15442 [2]; maximum tested concentration 200 μg/mL): 57.2%; BIC50 (P. aeruginosa ATCC 15442 [2]; peptide, AAT Bioquest IC50 calculator): 70.7 µg/mL; MIC (E. faecalis ATCC 29212; [3]): > 250 µg/mL; MIC (C. albicans ATCC 10231; chemically synthesized peptide, maximum tested concentration 250 μg/mL, Sabouraud, triplicate): > 250 µg/mL; MIC (S. aureus ATCC 25923; [3]): > 250 µg/mL |
| IVASVGSA [Peptide #5, natural peptide IVASVGSA from rhizome extract, chemically synthesized] |  |  |  |  |  |  | Activity on HepG2 cells (in words) (HepG2 cells): inability of peptide #5 to exert any biological role |
| RKTFWGVL [Peptide #2d] |  | > 250 | > 250 | > 250 | > 250 | > 250 |  |
| WVVRLNAPGKK [Peptide #3d] | 0.41 | > 250 | > 250 | > 250 | > 250 | > 250 |  |

Reference: article PMC10056643, “New Bioactive Peptides from the Mediterranean Seagrass Posidonia oceanica (L.) Delile and Their Impact on Antimicrobial Activity and Apoptosis of Human Cancer Cells” (International Journal of Molecular Sciences, 2023)
